Read-outs that look alike come from different tables or passages of the source.
Legend:
PARP1 = PARP1 (Homo sapiens, UniProt P09874); assay: PARP1 inhibition assay; type: biochemical; settings: tested in duplicate, average; for inhibition at 1 µM: read-out: Inhibition rate PARP1, 1 μmol/L; for inhibition at 10 µM: read-out: Inhibition rate PARP1, 10 μmol/L
[1] = biological target: recombinant BRD4(BD1 + BD2) (Homo sapiens, UniProt O60885); assay: BRD4 inhibition assay; type: binding; settings: tested in duplicate, average; for inhibition at 1 µM: read-out: Inhibition rate BRD4, 1 μmol/L; for inhibition at 10 µM: read-out: Inhibition rate BRD4, 10 μmol/L
MDA-MB-468 cells = assay: Cell viability assay; type: cell-based, human; settings: read-out: Anti-proliferative activity (IC50)
[2] = MDA-MB-468 cells, cell viability assay for 24 h

Chain of PARP1 (P09874 whole entry): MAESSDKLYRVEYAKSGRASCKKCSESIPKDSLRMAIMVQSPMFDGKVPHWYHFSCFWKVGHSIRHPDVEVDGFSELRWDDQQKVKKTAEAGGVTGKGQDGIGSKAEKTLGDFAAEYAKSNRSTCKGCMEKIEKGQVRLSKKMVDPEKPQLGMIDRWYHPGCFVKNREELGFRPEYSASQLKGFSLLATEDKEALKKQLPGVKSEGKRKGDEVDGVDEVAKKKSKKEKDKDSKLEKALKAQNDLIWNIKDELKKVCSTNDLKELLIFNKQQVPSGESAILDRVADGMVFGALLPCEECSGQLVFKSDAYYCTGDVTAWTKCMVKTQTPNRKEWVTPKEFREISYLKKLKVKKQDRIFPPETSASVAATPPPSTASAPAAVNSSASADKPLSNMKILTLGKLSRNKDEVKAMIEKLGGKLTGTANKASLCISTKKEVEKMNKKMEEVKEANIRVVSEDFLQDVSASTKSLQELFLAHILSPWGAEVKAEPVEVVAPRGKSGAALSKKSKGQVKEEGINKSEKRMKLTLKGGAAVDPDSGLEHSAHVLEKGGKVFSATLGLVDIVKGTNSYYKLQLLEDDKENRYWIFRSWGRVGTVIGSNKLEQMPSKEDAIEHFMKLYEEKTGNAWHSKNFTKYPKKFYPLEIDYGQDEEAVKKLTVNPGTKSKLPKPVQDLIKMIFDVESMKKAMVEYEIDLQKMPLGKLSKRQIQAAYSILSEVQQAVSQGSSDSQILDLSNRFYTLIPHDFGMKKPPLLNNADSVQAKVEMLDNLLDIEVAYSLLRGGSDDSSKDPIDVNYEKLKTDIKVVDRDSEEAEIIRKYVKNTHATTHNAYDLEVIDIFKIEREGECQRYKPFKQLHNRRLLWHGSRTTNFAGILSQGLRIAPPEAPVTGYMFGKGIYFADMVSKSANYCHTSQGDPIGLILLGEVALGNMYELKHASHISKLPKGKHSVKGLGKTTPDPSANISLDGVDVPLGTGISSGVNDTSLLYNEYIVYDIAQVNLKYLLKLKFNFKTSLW

Row | Compound | Inhibition rate PARP1 (PARP1; 1 μmol/L) [%] | Inhibition rate PARP1 (PARP1; 10 μmol/L) [%] | Inhibition rate BRD4 ([1]; 1 μmol/L) [%] | Inhibition rate BRD4 ([1]; 10 μmol/L) [%] | IC50 (MDA-MB-468 cells; [2]) [µM] | inhibition at 1 µM (PARP1) [%] | inhibition at 10 µM (PARP1) [%] | inhibition at 1 µM [1] [%] | inhibition at 10 µM [1] [%] | IC50 (MDA-MB-468 cells; Homo sapiens, MDA-MB-468, 24 h) [µM]
1 | 2-(2-(2-((3a,7a-Dihydro-1H-benzo[d][1,2,3]triazol-1-yl)oxy)ethoxy)-4-methoxyphenyl)-5,7-dimethoxyquinazolin-4(3H)-one [Compound 19q] | 3 | 2 | 11 | 80 | 24.2 ± 2.2 |  |  |  |  | 
2 | 2-(4-Chloro-2-(2-((3a,7a-dihydro-1H-benzo[d][1,2,3]triazol-1-yl)oxy)ethoxy)phenyl)-5,7-dimethoxyquinazolin-4(3H)-one [Compound 19r] | 4 | 6 | 17 | 77 | > 30 |  |  |  |  | 
3 | COc1cc(OC)c2c(=O)[nH]c(-c3cc(Cl)ccc3OCCOc3ccccc3C(N)=O)nc2c1 [Compound 19a, 2-(2-(4-Chloro-2-(5,7-dimethoxy-4-oxo-3,4-dihydroquinazolin-2-yl)phenoxy)ethoxy)benzamide] |  |  |  |  |  | 30 | 85 | 31 | 90 | 6 ± 0.9
4 | COc1cc(OC)c2c(=O)[nH]c(-c3cc(Cl)ccc3OCCCOc3ccccc3C(N)=O)nc2c1 [Compound 19b, 2-(3-(4-Chloro-2-(5,7-dimethoxy-4-oxo-3,4-dihydroquinazolin-2-yl)phenoxy)propoxy)benzamide] |  |  |  |  |  | 35 | 81 | 3 | 69 | 10.9 ± 0.5
5 | COc1cc(OC)c2c(=O)[nH]c(-c3cc(Cl)ccc3OCCCCOc3ccccc3C(N)=O)nc2c1 [Compound 19c, 2-(4-(4-Chloro-2-(5,7-dimethoxy-4-oxo-3,4-dihydroquinazolin-2-yl)phenoxy)butoxy)benzamide] |  |  |  |  |  | 29 | 84 | 7 | 54 | 7.4 ± 1.8
6 | COc1cc(OC)c2c(=O)[nH]c(-c3cc(Cl)ccc3OCCCCCOc3ccccc3C(N)=O)nc2c1 [Compound 19e, 2-((5-(4-Chloro-2-(5,7-dimethoxy-4-oxo-3,4-dihydroquinazolin-2-yl)phenoxy)pentyl)oxy)benzamide] |  |  |  |  |  | 18 | 71 | 4 | 55 | 15.3 ± 3.6
7 | COc1cc(OC)c2c(=O)[nH]c(-c3cc(C)c(OCCOc4ccccc4C(N)=O)c(C)c3)nc2c1 [Compound 19f, 2-(2-(4-(5,7-Dimethoxy-4-oxo-3,4-dihydroquinazolin-2-yl)-2,6-dimethylphenoxy)ethoxy)benzamide] |  |  |  |  |  | 40 | 79 | 11 | 74 | 8.4 ± 1.3
8 | COc1cc(OC)c2c(=O)[nH]c(-c3cc(OC)c(OCCOc4ccccc4C(N)=O)c(OC)c3)nc2c1 [Compound 19g, 2-(2-(4-(5,7-Dimethoxy-4-oxo-3,4-dihydroquinazolin-2-yl)-2,6-dimethoxyphenoxy)ethoxy)benzamide] |  |  |  |  |  | 25 | 70 | 15 | 72 | 5.7 ± 2.1
9 | COc1cc(OC)c2c(=O)[nH]c(-c3ccc(OCCOc4ccccc4C(N)=O)c(F)c3)nc2c1 [Compound 19h, 2-(2-(4-(5,7-Dimethoxy-4-oxo-3,4-dihydroquinazolin-2-yl)-2-fluorophenoxy)ethoxy)benzamide] |  |  |  |  |  | 31 | 65 | 12 | 62 | 11.8 ± 3.4
10 | COc1cc(OC)c2c(=O)[nH]c(-c3cc(C)c(OCCOn4nnc5ccccc54)c(C)c3)nc2c1 [Compound 19i, 2-(4-(2-((1H-Benzo[d][1,2,3]triazol-1-yl)oxy)ethoxy)-3,5-dimethylphenyl)-5,7-dimethoxyquinazolin-4(3H)-one] |  |  |  |  |  | 11 | 18 | 18 | 61 | > 30
11 | COc1cc(OC)c2c(=O)[nH]c(-c3cc(OC)c(OCCOn4nnc5ccccc54)c(OC)c3)nc2c1 [Compound 19j, 2-(4-(2-((1H-Benzo[d][1,2,3]triazol-1-yl)oxy)ethoxy)-3,5-dimethoxyphenyl)-5,7-dimethoxyquinazolin-4(3H)-one] |  |  |  |  |  | 6 | 18 | 12 | 64 | > 30
12 | COc1cc(OC)c2c(=O)[nH]c(-c3ccc(OCCOn4nnc5ccccc54)cc3)nc2c1 [Compound 19k, 2-(4-(2-((1H-Benzo[d][1,2,3]triazol-1-yl)oxy)ethoxy)phenyl)-5,7-dimethoxyquinazolin-4(3H)-one] |  |  |  |  |  | 7 | 29 | 13 | 83 | 22.9 ± 2.4
13 | COc1cc(OC)c2c(=O)[nH]c(-c3ccc(OCCOn4nnc5ccccc54)c(F)c3)nc2c1 [Compound 19l, 2-(4-(2-((1H-Benzo[d][1,2,3]triazol-1-yl)oxy)ethoxy)-3-fluorophenyl)-5,7-dimethoxyquinazolin-4(3H)-one] |  |  |  |  |  | 1 | 14 | 29 | 80 | 23.7 ± 3.3
14 | COc1cc(OC)c2c(=O)[nH]c(-c3cc(C)c(OCCOc4ccc5cn[nH]c5c4)c(C)c3)nc2c1 [Compound 19m, 2-(4-(2-((1H-Indazol-6-yl)oxy)ethoxy)-3,5-dimethylphenyl)-5,7-dimethoxyquinazolin-4(3H)-one] |  |  |  |  |  | 7 | 11 | 15 | 46 | > 30
15 | COc1cc(OC)c2c(=O)[nH]c(-c3cc(OC)c(OCCOc4ccc5cn[nH]c5c4)c(OC)c3)nc2c1 [Compound 19n, 2-(4-(2-((1H-Indazol-6-yl)oxy)ethoxy)-3,5-dimethoxyphenyl)-5,7-dimethoxyquinazolin-4(3H)-one] |  |  |  |  |  | 9 | 16 | 14 | 45 | > 30
16 | COc1cc(OC)c2c(=O)[nH]c(-c3ccc(OCCOc4ccc5cn[nH]c5c4)cc3)nc2c1 [Compound 19o, 2-(4-(2-((1H-Indazol-6-yl)oxy)ethoxy)phenyl)-5,7-dimethoxyquinazolin-4(3H)-one] |  |  |  |  |  | 3 | 13 | 3 | 56 | > 30
17 | COc1cc(OC)c2c(=O)[nH]c(-c3ccc(OCCOn4nnc5ccccc54)c(Cl)c3)nc2c1 [Compound 19p, 2-(4-(2-((1H-Benzo[d][1,2,3]triazol-1-yl)oxy)ethoxy)-3-chlorophenyl)-5,7-dimethoxyquinazolin-4(3H)-one] |  |  |  |  |  | 3 | 6 | 3 | 44 | > 30
18 | COc1cc(OC)c2c(=O)[nH]c(-c3cc(F)ccc3OCCOc3ccccc3C(N)=O)nc2c1 [Compound 19s, 2-(2-(2-(5,7-Dimethoxy-4-oxo-3,4-dihydroquinazolin-2-yl)-4-fluorophenoxy)ethoxy)benzamide] |  |  |  |  |  | 12 | 65 | 8 | 74 | 8.7 ± 5.2
19 | COc1cc(OC)c2c(=O)[nH]c(-c3ccc(OCCOc4ccc5nc[nH]c(=O)c5c4)cc3)nc2c1 [Compound 19t, 5,7-Dimethoxy-2-(4-(2-((4-oxo-3,4-dihydroquinazolin-6-yl)oxy)ethoxy)phenyl)quinazolin-4(3H)-one] |  |  |  |  |  | 1 | 25 | 9 | 67 | > 30
20 | COc1cc(OC)c2c(=O)[nH]c(-c3ccc(OCCOc4ccncc4C(N)=O)cc3)nc2c1 [Compound 19u, 4-(2-(4-(5,7-Dimethoxy-4-oxo-3,4-dihydroquinazolin-2-yl)phenoxy)ethoxy)nicotinamide] |  |  |  |  |  | 36 | 81 | 6 | 77 | 6.7 ± 2.4
21 | COc1cc(OC)c2c(=O)[nH]c(-c3cc(C)c(OCCO)c(C)c3)nc2c1 [RVX-208, reference compound] |  |  |  |  |  | 1 | 4 | 20 | 60 | > 30
